Test results reported in patent publication US11840686B2, “Modulation of prekallikrein (PKK) expression” (Ionis Pharmaceuticals, Inc., priority 2013, dated 2023).
Strand notation (5' to 3'): a small letter for the sugar, then the base; units joined by * are phosphorothioate-linked, units joined directly phosphodiester-linked; [ ] holds rarer units or linkages, { } end groups; capitals alone tell only the bases. e = 2'-O-(2-methoxyethyl) (MOE); [5mC] = 5-methylcytosine; d = 2'-deoxy (DNA)

Tests used:
human PKK mRNA [1] = assay: Dose-dependent antisense inhibition of human PKK in HepaRG cells, 0.19-5.00 uM (Example 5); format: cell-based; details: for percent inhibition of PKK mRNA, 0.19 μM: 0.19 μM antisense oligonucleotide; for percent inhibition of PKK mRNA, 0.56 μM: 0.56 μM antisense oligonucleotide; for percent inhibition of PKK mRNA, 1.67 μM: 1.67 μM antisense oligonucleotide; for percent inhibition of PKK mRNA, 5.00 μM: 5.00 μM antisense oligonucleotide
Protocol: Cells were plated at a density of 20,000 cells per well and transfected using electroporation with 0.19 μM, 0.56 μM, 1.67 μM, and 5.00 μM concentrations of antisense oligonucleotide. After a treatment period of approximately 16 hours, RNA was isolated from the cells and PKK mRNA levels were measured by quantitative real-time PCR. Human PKK primer probe set RTS3454 was used to measure mRNA levels. PKK mRNA levels were adjusted according to total RNA content, as measured by RIBOGREEN®. The antisense oligonucleotides were tested in a series of experiments that had similar culture conditions.
The half maximal inhibitory concentration (IC50) of each oligonucleotide is also presented.

human PKK mRNA [2] = assay: Antisense inhibition of human PKK mRNA in HepaRG cells, 5,000 nM (Example 2); format: cell-based
Method in brief: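 Chimeric MOE gapmers with full phosphorothioate backbones were tested once at 5,000 nM in electroporated HepaRG cells. After about 24 hours, quantitative PCR measured PKK mRNA relative to untreated control cells.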

[3] = HepaRG cells, electroporation, approximately 16 hours, Table 36
[4] = 4 point dose response, HepaRG cells, Table 36
[5] = HepaRG cells, electroporation, approximately 16 hours, Table 40
[6] = human PKK mRNA, HepaRG cells, 5,000 nM antisense oligonucleotide, Table 18
[7] = HepaRG cells, electroporation, approximately 16 hours, Table 37
[8] = Table 34, HepaRG, electroporation, ~16 h

Substance | percent inhibition of PKK at 0.19 μM (human PKK mRNA [1]; [3]) [%] | percent inhibition of PKK at 0.56 μM (human PKK mRNA [1]; [3]) [%] | percent inhibition of PKK at 1.67 μM (human PKK mRNA [1]; [3]) [%] | percent inhibition of PKK at 5.00 μM (human PKK mRNA [1]; [3]) [%] | IC50 (human PKK mRNA [1]; [4]) [nM] | percent inhibition of PKK mRNA, 0.19 μM (human PKK mRNA [1]; HepaRG cells) [%] | percent inhibition of PKK mRNA, 0.56 μM (human PKK mRNA [1]; HepaRG cells) [%] | percent inhibition of PKK mRNA, 1.67 μM (human PKK mRNA [1]; HepaRG cells) [%] | percent inhibition of PKK mRNA, 5.00 μM (human PKK mRNA [1]; HepaRG cells) [%] | IC50 (human PKK mRNA [1]; HepaRG cells, 0.19-5.00 μM) [nM] | also measured
546897 (eA*eG*eT*eA*eT*d[5mC]*dA*d[5mC]*dT*dG*dT*d[5mC]*d[5mC]*dT*dA*eT*eG*eT*e[5mC]*eA; antisense) [compound 546897] | 40 | 56 | 71 | 95 | 400 | 16 | 17 | 69 | 97 | 800 | % inhibition (human PKK mRNA [2]; human PKK mRNA, HepaRG cells, 5-10-5 motif oligonucleotides targeting SEQ ID NO: 1 and 10): 90%
546826 (eA*eG*eT*eA*eT*d[5mC]*dA*d[5mC]*dT*dG*dT*dA*d[5mC]*dT*dA*eG*eT*eT*eT*e[5mC]; antisense) [compound 546826] | 17 | 40 | 87 | 97 | 700 |  |  |  |  |  | % inhibition (human PKK mRNA [2]; Table 13, human PKK mRNA in HepaRG cells, 5-10-5 gapmers): 90%
547293 (antisense e[5mC]*eA*eT*e[5mC]*eT*dG*dG*d[5mC]*dA*dG*dT*dA*dT*dT*dG*eG*eG*e[5mC]*eA*eT) [compound 547293] | 53 | 57 | 80 | 86 | 200 | 0 | 45 | 65 | 70 | 1300 | % inhibition (human PKK mRNA [2]; HepaRG cells, electroporation with 5,000 nM antisense oligonucleotide, approximately 24 hours, PKK mRNA by RT-PCR (RTS3454), relative to untreated control cells, Table 5 experiment): 92%
548743 (DNA e[5mC]*eA*e[5mC]*eT*dG*dT*dA*d[5mC]*dT*dA*dG*dT*dT*eT*e[5mC]*e[5mC]*eT; antisense) [compound 548743] |  |  |  |  |  | 22 | 47 | 74 | 96 | 600 | percent inhibition of PKK at 0.19 μM (human PKK mRNA [1]; [5]): 25%; percent inhibition of PKK at 0.56 μM (human PKK mRNA [1]; [5]): 57%; percent inhibition of PKK at 1.67 μM (human PKK mRNA [1]; [5]): 73%; percent inhibition of PKK at 5.00 μM (human PKK mRNA [1]; [5]): 88%; IC50 (human PKK mRNA [1]; 4 point dose response, HepaRG cells, Table 40): 500 nM; % inhibition (human PKK mRNA [2]; [6]): 80%
548770 (antisense eT*eA*eA*e[5mC]*dA*dG*dT*dA*dT*d[5mC]*dA*d[5mC]*dT*eG*eT*e[5mC]*e[5mC]) [compound 548770] | 26 | 54 | 77 | 91 | 500 | 9 | 0 | 61 | 92 | 1700 | % inhibition (human PKK mRNA [2]; [6]): 92%
547349 (antisense e[5mC]*eT*eT*e[5mC]*eA*dA*d[5mC]*dA*d[5mC]*dT*dG*d[5mC]*dT*dA*dA*e[5mC]*e[5mC]*eT*eT*eA) [compound 547349] |  |  |  |  |  |  |  |  |  |  | percent inhibition of PKK at 0.19 μM (human PKK mRNA [1]; [7]): 0%; percent inhibition of PKK at 0.56 μM (human PKK mRNA [1]; [7]): 8%; percent inhibition of PKK at 1.67 μM (human PKK mRNA [1]; [7]): 66%; percent inhibition of PKK at 5.00 μM (human PKK mRNA [1]; [7]): 76%; IC50 (human PKK mRNA [1]; 4 point dose response, HepaRG cells, Table 37): 1600 nM; % inhibition (human PKK mRNA [2]; HepaRG cells, electroporation with 5,000 nM antisense oligonucleotide, approximately 24 hours, PKK mRNA by RT-PCR (RTS3454), relative to untreated control cells, Table 6 experiment): 88%
547445 (antisense eG*e[5mC]*e[5mC]*eA*e[5mC]*dT*dA*dT*dA*dG*dA*dT*dG*d[5mC]*dG*e[5mC]*e[5mC]*eA*eA*eA) [compound 547445] |  |  |  |  |  |  |  |  |  |  | percent inhibition of PKK at 5.00 μM (human PKK mRNA [1]; HepaRG cells, electroporation, approximately 16 hours, Table 41): 91%; percent inhibition of PKK at 0.19 0μM (human PKK mRNA [1]; 0.19 0μM, HepaRG cells, electroporation, approximately 16 hours, Table 41): 80%; percent inhibition of PKK at 0.56 0μM (human PKK mRNA [1]; 0.56 0μM, HepaRG cells, electroporation, approximately 16 hours, Table 41): 87%; percent inhibition of PKK at 1.67 1μM (human PKK mRNA [1]; 1.67 1μM, HepaRG cells, electroporation, approximately 16 hours, Table 41): 98%; IC50 (human PKK mRNA [1]; 4 point dose response, HepaRG cells, Table 41): < 200 nM; percent inhibition of PKK at 0.19 μM (human PKK mRNA [1]; [8]): 41%; percent inhibition of PKK at 0.56 μM (human PKK mRNA [1]; [8]): 75%; percent inhibition of PKK at 1.67 μM (human PKK mRNA [1]; [8]): 82%; percent inhibition of PKK at 5.00 μM (human PKK mRNA [1]; [8]): 88%; IC50 (human PKK mRNA [1]; Table 34, PKK mRNA, HepaRG, electroporation, ~16 h): 200 nM; % inhibition (human PKK mRNA [2]; Table 8, HepaRG cells, electroporation with 5,000 nM antisense oligonucleotide, approx. 24 hours, PKK mRNA by RT-PCR (RTS3454), relative to untreated control cells): 97%
